# Experimental data as given in patent publication US9708312B2, “Dihydropyrimidinoisoquinolinones and pharmaceutical compositions thereof for the treatment of inflammatory disorders (GPR84 antagonists)” (GALAPAGOS NV, priority 2012, dated 2017).
# Molecular target: T1, GPR84 (Homo sapiens, UniProt Q9NQS5)
# T1 construct: expressed in transfected cells
# Assay: GPR84 [35S]GTPγS binding assay, HEPES buffer
# Format: biochemical
# Details: 3,3′ di indolylmethane at EC80, membranes from stable cell line over expressing GPR84
# Procedure, shortened: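 Membranes from a stable GPR84-overexpressing cell line (20 μg/well), pre-incubated with 0.1 μM GDP for 15 min at 4° C, mixed with 0.1 nM [35S]GTPγS and WGA SpA beads in 20 mM HEPES pH 7.4, 5 mM MgCl2, 250 mM NaCl, 0.05% BSA, 75 ug/mL saponin. Incubated 90 min at room temperature; scintillation proximity read after centrifugation.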
# T1 sequence (Q9NQS5 whole entry): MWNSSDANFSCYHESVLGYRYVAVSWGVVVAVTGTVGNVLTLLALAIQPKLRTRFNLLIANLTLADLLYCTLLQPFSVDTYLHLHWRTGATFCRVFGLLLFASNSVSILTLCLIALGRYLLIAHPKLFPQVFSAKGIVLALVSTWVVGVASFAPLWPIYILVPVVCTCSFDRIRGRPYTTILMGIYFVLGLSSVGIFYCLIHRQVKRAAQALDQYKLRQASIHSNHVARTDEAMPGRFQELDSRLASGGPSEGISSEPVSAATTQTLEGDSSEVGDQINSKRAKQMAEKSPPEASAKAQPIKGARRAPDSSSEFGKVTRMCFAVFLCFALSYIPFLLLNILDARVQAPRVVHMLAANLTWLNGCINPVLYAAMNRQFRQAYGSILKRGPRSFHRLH
row,SMILES,IC50 [nM]
1,"O=c1nc(OCC2COc3ncccc3O2)cc2n1CCc1cc(C3=CCOCC3)ccc1-2 (stereo not shown) [compound 161, 2-(2,3-dihydro-[1,4]dioxino[2,3-b]pyridin-2-ylmethoxy)-9-(3,6-dihydro-2H-pyran-4-yl)-6,7-dihydro-pyrimido[6,1-a]isoquinolin-4-one]",0.01 to 100
2,"N#Cc1ccc(-c2ccc3c(c2)CCn2c-3cc(OCC3COc4ncccc4O3)nc2=O)cn1 (stereo not shown) [compound 162, 5-[2-(2,3-dihydro-[1,4]dioxino[2,3-b]pyridin-2-ylmethoxy)-4-oxo-6,7-dihydro-pyrimido[6,1-a]isoquinolin-9-yl]-pyridine-2-carbonitrile]",0.01 to 100
3,"CCOc1ncccc1-c1ccc2c(c1)CCn1c-2cc(OCC2COc3ncccc3O2)nc1=O (stereo not shown) [compound 163, 2-(2,3-dihydro-[1,4]dioxino[2,3-b]pyridin-2-ylmethoxy)-9-(2-ethoxy-pyridin-3-yl)-6,7-dihydro-pyrimido[6,1-a]isoquinolin-4-one]",0.01 to 100
4,"CCOc1ccc(-c2ccc3c(c2)CCn2c-3cc(OCC3COc4ncccc4O3)nc2=O)cn1 (stereo not shown) [compound 164, 2-(2,3-dihydro-[1,4]dioxino[2,3-b]pyridin-2-ylmethoxy)-9-(6-ethoxy-pyridin-3-yl)-6,7-dihydro-pyrimido[6,1-a]isoquinolin-4-one]",0.01 to 100
5,"O=c1nc(OCC2COc3ncccc3O2)cc2n1CCc1cc(-c3ccc(N4CCOCC4)nc3)ccc1-2 (stereo not shown) [compound 165, 2-(2,3-dihydro-[1,4]dioxino[2,3-b]pyridin-2-ylmethoxy)-9-(6-morpholin-4-yl-pyridin-3-yl)-6,7-dihydro-pyrimido[6,1-a]isoquinolin-4-one]",0.01 to 100
6,"COc1ncc(-c2ccc3c(c2)CCn2c-3cc(OCC3COc4ncccc4O3)nc2=O)cn1 (stereo not shown) [compound 166, 2-(2,3-dihydro-[1,4]dioxino[2,3-b]pyridin-2-ylmethoxy)-9-(2-methoxy-pyrimidin-5-yl)-6,7-dihydro-pyrimido[6,1-a]isoquinolin-4-one]",0.01 to 100
7,"COc1cccc(-c2ccc3c(c2)CCn2c-3cc(OCC3COc4ncccc4O3)nc2=O)c1OC (stereo not shown) [compound 167, 2-(2,3-dihydro-[1,4]dioxino[2,3-b]pyridin-2-ylmethoxy)-9-(2,3-dimethoxy-phenyl)-6,7-dihydro-pyrimido[6,1-a]isoquinolin-4-one]",0.01 to 100
8,"COc1ccc(OC)c(-c2ccc3c(c2)CCn2c-3cc(OCC3COc4ncccc4O3)nc2=O)c1 (stereo not shown) [compound 168, 2-(2,3-dihydro-[1,4]dioxino[2,3-b]pyridin-2-ylmethoxy)-9-(2,5-dimethoxy-phenyl)-6,7-dihydro-pyrimido[6,1-a]isoquinolin-4-one]",0.01 to 100
9,"N#CCCOCC#Cc1ccc2c(c1)CCn1c-2cc(OCC2COc3ncccc3O2)nc1=O (stereo not shown) [compound 170, 3-{3-[2-(2,3-dihydro-[1,4]dioxino[2,3-b]pyridin-2-ylmethoxy)-4-oxo-6,7-dihydro-4H-pyrimido[6,1-a]isoquinolin-9-yl]-prop-2-ynyloxy}-propionitrile]",0.01 to 100
10,"CNCC#Cc1ccc2c(c1)CCn1c-2cc(OCC2COc3ncccc3O2)nc1=O (stereo not shown) [compound 171, 2-(2,3-dihydro-[1,4]dioxino[2,3-b]pyridin-2-ylmethoxy)-9-(3-methylamino-prop-1-ynyl)-6,7-dihydro-pyrimido[6,1-a]isoquinolin-4-one]",500 to 1000
11,"CN(C)CC#Cc1ccc2c(c1)CCn1c-2cc(OCC2COc3ncccc3O2)nc1=O (stereo not shown) [compound 172, 2-(2,3-dihydro-[1,4]dioxino[2,3-b]pyridin-2-ylmethoxy)-9-(3-dimethylamino-prop-1-ynyl)-6,7-dihydro-pyrimido[6,1-a]isoquinolin-4-one]",0.01 to 100
12,"CN(CC#Cc1ccc2c(c1)CCn1c-2cc(OCC2COc3ncccc3O2)nc1=O)Cc1ccccc1 (stereo not shown) [compound 173, 9-[3-(benzyl-methyl-amino)-prop-1-ynyl]-2-(2,3-dihydro-[1,4]dioxino[2,3-b]pyridin-2-ylmethoxy)-6,7-dihydro-pyrimido[6,1-a]isoquinolin-4-one]",100 to 500
13,"O=c1nc(OCC2COc3ncccc3O2)cc2n1CCc1cc(C#CCN3CCS(=O)(=O)CC3)ccc1-2 (stereo not shown) [compound 174, 2-(2,3-dihydro-[1,4]dioxino[2,3-b]pyridin-2-ylmethoxy)-9-[3-(1,1-dioxo-thiomorpholin-4-yl)-prop-1-ynyl]-6,7-dihydro-pyrimido[6,1-a]isoquinolin-4-one]",100 to 500
14,"NC(=O)NCC#Cc1ccc2c(c1)CCn1c-2cc(OCC2COc3ncccc3O2)nc1=O (stereo not shown) [compound 175, {3-[2-(2,3-Dihydro-[1,4]dioxino[2,3-b]pyridin-2-ylmethoxy)-4-oxo-6,7-dihydro-4H-pyrimido[6,1-a]isoquinolin-9-yl]-prop-2-ynyl}-urea]",0.01 to 100
15,"O=C1CN(CC#Cc2ccc3c(c2)CCn2c-3cc(OCC3COc4ncccc4O3)nc2=O)C(=O)N1 (stereo not shown) [compound 176, 1-{3-[2-(2,3-Dihydro-[1,4]dioxino[2,3-b]pyridin-2-ylmethoxy)-4-oxo-6,7-dihydro-4H-pyrimido[6,1-a]isoquinolin-9-yl]-prop-2-ynyl}-imidazolidine-2,4-dione]",100 to 500
16,"CCN(CC)CC#Cc1ccc2c(c1)CCn1c-2cc(OCC2COc3ncccc3O2)nc1=O (stereo not shown) [compound 177, 9-(3-diethylamino-prop-1-ynyl)-2-(2,3-dihydro-[1,4]dioxino[2,3-b]pyridin-2-ylmethoxy)-6,7-dihydro-pyrimido[6,1-a]isoquinolin-4-one]",100 to 500
17,"CC(C)(N)C#Cc1ccc2c(c1)CCn1c-2cc(OCC2COc3ncccc3O2)nc1=O (stereo not shown) [compound 178, 9-(3-amino-3-methyl-but-1-ynyl)-2-(2,3-dihydro-[1,4]dioxino[2,3-b]pyridin-2-ylmethoxy)-6,7-dihydro-pyrimido[6,1-a]isoquinolin-4-one]",100 to 500
18,"O=c1nc(OCC2COc3ncccc3O2)cc2n1CCc1cc(OCC3CCCCO3)ccc1-2 (stereo not shown) [compound 179, 2-(2,3-dihydro-[1,4]dioxino[2,3-b]pyridin-2-ylmethoxy)-9-(tetrahydro-pyran-2-ylmethoxy)-6,7-dihydro-pyrimido[6,1-a]isoquinolin-4-one]",0.01 to 100
19,"NC1(C#Cc2ccc3c(c2)CCn2c-3cc(OCC3COc4ncccc4O3)nc2=O)CCCCC1 (stereo not shown) [compound 184, 9-(1-amino-cyclohexylethynyl)-2-(2,3-dihydro-[1,4]dioxino[2,3-b]pyridin-2-ylmethoxy)-6,7-dihydro-pyrimido[6,1-a]isoquinolin-4-one]",100 to 500
20,"CC(C)CC(O)C#Cc1ccc2c(c1)CCn1c-2cc(OCC2COc3ncccc3O2)nc1=O (stereo not shown) [compound 185, 2-(2,3-dihydro-[1,4]dioxino[2,3-b]pyridin-2-ylmethoxy)-9-(3-hydroxy-5-methyl-hex-1-ynyl)-6,7-dihydro-pyrimido[6,1-a]isoquinolin-4-one]",0.01 to 100
21,"CCC(O)(C#Cc1ccc2c(c1)CCn1c-2cc(OCC2COc3ncccc3O2)nc1=O)CC (stereo not shown) [compound 186, 2-(2,3-dihydro-[1,4]dioxino[2,3-b]pyridin-2-ylmethoxy)-9-(3-ethyl-3-hydroxy-pent-1-ynyl)-6,7-dihydro-pyrimido[6,1-a]isoquinolin-4-one]",0.01 to 100
22,"CC(O)(C#Cc1ccc2c(c1)CCn1c-2cc(OCC2COc3ncccc3O2)nc1=O)c1ccccc1 (stereo not shown) [compound 187, 2-(2,3-Dihydro-[1,4]dioxino[2,3-b]pyridin-2-ylmethoxy)-9-(3-hydroxy-3-phenyl-but-1-ynyl)-6,7-dihydro-pyrimido[6,1-a]isoquinolin-4-one]",0.01 to 100
23,"CCCCNCC#Cc1ccc2c(c1)CCn1c-2cc(OCC2COc3ncccc3O2)nc1=O (stereo not shown) [compound 191, 9-(3-butylamino-prop-1-ynyl)-2-(2,3-dihydro-[1,4]dioxino[2,3-b]pyridin-2-ylmethoxy)-6,7-dihydro-pyrimido[6,1-a]isoquinolin-4-one]",100 to 500
24,"O=c1nc(OCC2COc3ncccc3O2)cc2n1CCc1cc(C#CCNc3ccccc3)ccc1-2 (stereo not shown) [compound 194, 2-(2,3-dihydro-[1,4]dioxino[2,3-b]pyridin-2-ylmethoxy)-9-(3-phenylamino-prop-1-ynyl)-6,7-dihydro-pyrimido[6,1-a]isoquinolin-4-one]",0.01 to 100
25,"O=C(NC1CCOCC1)c1ccc2c(c1)CCn1c-2cc(OCC2COc3ncccc3O2)nc1=O (stereo not shown) [compound 195, 2-(2,3-dihydro-[1,4]dioxino[2,3-b]pyridin-2-ylmethoxy)-4-oxo-6,7-dihydro-4H-pyrimido[6,1-a]isoquinoline-9-carboxylic acid (tetrahydro-pyran-4-yl)-amide]",100 to 500
26,"O=c1nc(OCC2COc3ncccc3O2)cc2n1CCc1cc(CN3CCCC3)ccc1-2 (stereo not shown) [compound 197, 2-(2,3-dihydro-[1,4]dioxino[2,3-b]pyridin-2-ylmethoxy)-9-pyrrolidin-1-ylmethyl-6,7-dihydro-pyrimido[6,1-a]isoquinolin-4-one]",100 to 500
27,"CCNC1(C#Cc2ccc3c(c2)CCn2c-3cc(OCC3COc4ncccc4O3)nc2=O)COC1 (stereo not shown) [compound 201, 2-(2,3-dihydro-[1,4]dioxino[2,3-b]pyridin-2-ylmethoxy)-9-(3-ethylamino-oxetan-3-ylethynyl)-6,7-dihydro-pyrimido[6,1-a]isoquinolin-4-one]",100 to 500
28,"CC(C)C1CC(COc2cc3n(c(=O)n2)CCc2cc(C#CC4CC4)ccc2-3)O1 (stereo not shown) [compound 203, 9-cyclopropylethynyl-2-(4-isopropyl-oxetan-2-ylmethoxy)-6,7-dihydro-pyrimido[6,1-a]isoquinolin-4-one]",500 to 1000
